Reference: article PMC10835127, “Viruses traverse the human proteome through peptide interfaces that can be biomimetically leveraged for drug discovery” (Proceedings of the National Academy of Sciences of the …, 2024)
Read-outs that look alike come from different tables or passages of the source.

Tests used:
HIV1 strain NL4-3 = assay type: cell-based; settings: normalized mean of HIV1 replication readout
HCV replicon = assay type: cell-based; settings: normalized mean of HCV replicon readout
[1] = tested on: F. novicida (strain U112); assay type: cell-based
influenza A H1N1 virus = settings: 48 hr post-treatment, A549
EBV = settings: normalized mean of EBV replication readout

| Substance | HIV1 Norm MEAN (HIV1 strain NL4-3; peptide screen) | HCV Norm MEAN (HCV replicon; peptide screen) | Francisella novicida Norm AUC [1] | Neuraminidase activity normalized to vehicle (influenza A H1N1 virus; 200 µM peptide) | Neuraminidase activity normalized to vehicle (influenza A H1N1 virus; 0,823 µM peptide) | Neuraminidase activity normalized to vehicle (influenza A H1N1 virus; 22,2 µM peptide) | Neuraminidase activity normalized to vehicle (influenza A H1N1 virus; 2,4691 µM peptide) | Neuraminidase activity normalized to vehicle (influenza A H1N1 virus; 7,4074 µM peptide) | Neuraminidase activity normalized to vehicle (influenza A H1N1 virus; 66,6667 µM peptide) | EBV Norm MEAN (EBV; peptide screen) | HIV1 Norm MEAN (HIV1 strain NL4-3) | HCV Norm MEAN (HCV replicon) | EBV Norm MEAN (EBV) |
| --- | --- | --- | --- | --- | --- | --- | --- | --- | --- | --- | --- | --- | --- |
| GPSDSGAGRAAEDRKCL [CPEP137] | 0.7725 | 0.6634 | 1.181 | 1,0777 | 1,0904 | 1,189 | 0,9326 | 1,1347 | 1,0155 | 1.2267 |  |  |  |
| ACTNCYCKKCCFHCQVC [CPEP100] | 0.1546 | 0.4928 | 1.04 | 1,0893 | 1,092 | 1,1329 | 0,9938 | 1,0674 | 1,0274 | 1.687 |  |  |  |
| CPEP136: peptide of the viral peptide library; sequence page not shown (VTNDCPNSSIVYE) | 0.7957 | 0.4475 | 1.265 | 0,9602 | 0,8343 | 0,8466 | 0,9183 | 0,8168 | 0,9818 | 1.578 |  |  |  |
| RRKAK [CPEP70] |  |  | 0.442 | 1,0392 | 0,9822 | 0,9863 | 0,9261 | 0,9473 | 1,0254 |  | 3.517 | 0.1385 | 1.652 |
| FPESLIL [CPEP76] |  |  | 0.9207 | 0,7678 | 0,7594 | 0,787 | 0,7722 | 0,7943 | 0,7797 |  | 0.9579 | 0.1881 | 1.102 |
| CPEP153: peptide of the viral peptide library; sequence page not shown (GRKKRRQRRR) |  |  | 0.6851 | 0,9878 | 1,0171 | 1,0832 | 1,0648 | 1,0014 | 1,1029 |  | 0.7984 | 0.3202 | 2.382 |
| PPPPY [CPEP132] |  |  | 0.9275 | 0,8244 | 0,8549 | 0,9192 | 0,87 | 0,8306 | 1,0078 |  | 1.621 | 0.2215 | 1.203 |
| PLDLS [CPEP54] |  |  | 0.4272 | 1,1329 | 1,0199 | 0,844 | 1,1627 | 0,6425 | 1,0456 |  | 1.112 | 0.1712 | 1.129 |
| GARASVLS [CPEP108] |  |  | 1.458 | 0,7289 | 0,7112 | 0,9027 | 0,8479 | 0,9625 | 0,8429 |  | 0.3412 | 0.178 | 0.7452 |
| CPEP63: peptide of the viral peptide library; sequence page not shown (KARHKRRNRSSRS) |  |  | 1.1166 | 0,8323 | 0,6161 | 0,9172 | 1 | 0,9177 | 0,9488 |  | 0.7086 | 0.5995 | 1.249 |
| HGCPL [CPEP33] |  |  | 0.6368 | 0,999 | 0,7063 | 0,8914 | 0,8619 | 0,7735 | 1,0094 |  | 0.2429 | 0.1691 | 1.339 |
| TGGER [CPEP30] |  |  | 0.8411 | 0,9647 | 0,957 | 0,923 | 0,8714 | 0,8974 | 0,9486 |  | 1.255 | 0.2042 | 0.8583 |
| CPEP142: peptide of the viral peptide library; sequence page not shown (LGIVCPICSQKP) |  |  | 1.819 | 0,8923 | 0,9385 | 0,9689 | 0,9538 | 0,9445 | 1,085 |  | 0.603 | 0.308 | 1.863 |
| DLYCYEQLNDSSEEE [CPEP55] | 0.5362 | 0.7703 | 1.147 | 1,025 | 0,8699 | 0,9333 | 0,9062 | 0,9392 | 1,0033 | 0.3423 |  |  |  |
| RKSASMS [CPEP82] |  |  | 1.194 | 0,8479 | 0,801 | 0,7544 | 0,6968 | 0,5924 | 0,9164 |  | 1.975 | 0.267 | 1.372 |
| CPEP74: peptide of the viral peptide library; sequence page not shown (ALGISYGRKKRRQ) |  |  | 1.149 | 0,8907 | 0,913 | 0,9469 | 1,0192 | 0,9165 | 0,9895 |  | 1.112 | 0.6842 | 1.663 |
| AAAVAFL [CPEP117] |  |  | 0.9738 | 0,72 | 0,8345 | 0,8782 | 0,8234 | 0,8773 | 0,8792 |  | 0.6808 | 0.1615 | 1.118 |
| EPLDLPPIIQ [CPEP45] |  |  | 1.0611 | 0,7336 | 0,9966 | 0,8381 | 0,9443 | 0,9188 | 0,7574 |  | 0.3392 | 1.078 | 0.6832 |
| RDVLCLRPVGAESR [CPEP94] | 0.3822 | 0.7235 | 1.032 | 0,3954 | 0,7797 | 0,8926 | 0,8827 | 0,8423 | 0,695 | 0.9161 |  |  |  |
| ISNLPYTIKYKIFEQQ [CPEP120] | 3.21 | 0.3919 | 0.5785 | 1,0456 | 1,0562 | 1,193 | 0,9901 | 1,0754 | 1,0268 | 1.211 |  |  |  |
